The results in this text go back to patent US20100137275A1 (IPSEN PHARMA S.A.S., priority 2007, published 2010).

The target of data set [1] is T1, purified recombinant Cdc25-C enzyme (MBP-Cdc25C protein) (Homo sapiens, UniProt P30307).
T1 construct: made in house
T1 sequence (P30307 1-473): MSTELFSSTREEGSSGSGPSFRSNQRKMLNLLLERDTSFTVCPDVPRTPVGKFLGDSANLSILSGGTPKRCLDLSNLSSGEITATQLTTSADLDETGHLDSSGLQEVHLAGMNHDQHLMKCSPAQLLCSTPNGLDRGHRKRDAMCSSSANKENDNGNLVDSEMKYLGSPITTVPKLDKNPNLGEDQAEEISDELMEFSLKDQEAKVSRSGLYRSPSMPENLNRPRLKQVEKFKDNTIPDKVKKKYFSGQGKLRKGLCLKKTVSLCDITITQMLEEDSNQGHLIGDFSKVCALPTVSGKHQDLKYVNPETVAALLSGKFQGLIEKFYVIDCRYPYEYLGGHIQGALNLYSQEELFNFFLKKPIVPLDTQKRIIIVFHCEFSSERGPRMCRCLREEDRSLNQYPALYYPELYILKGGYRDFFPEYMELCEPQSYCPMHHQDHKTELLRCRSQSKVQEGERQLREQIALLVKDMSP
As to the kind of experiment: Phosphatase activity of the purified recombinant Cdc25C enzyme (OMFP dephosphorylation, fluorescence). The conditions noted are these: OMFP 500 μM, 4 hours at 30° C. Format: biochemical. Summed up: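 MBP-Cdc25C fusion protein in 50 mM Tris-HCl pH 8.2, 50 mM NaCl, 1 mM DTT, 20% glycerol; reaction started with 500 μM OMFP (final). Compounds tested at decreasing concentrations from 40 μM; 4 h at 30 °C, OMF fluorescence read at 475 nm. IC50 from three independent experiments by linear regression over the linear part of the sigmoid.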

For data set [2], the system named is Mia-PaCa2 (human pancreas cancer cells). Description: Anti-proliferative activity on Mia-Paca2 cell line (WST1 colorimetric test). Format: cell-based. Particulars: MIA PaCa-2, 96 h, 96 hours treatment, read-out: IC50 on proliferation of the Mia-Paca2 cell line. As to the method:
By way of an example, the effect of treating two human cell lines Mia-Paca2 and DU145 with the compounds of the examples described hereinbefore will be studied. The cell lines DU145 (human prostate cancer cells) and Mia-PaCa2 (human pancreas cancer cells) were obtained from the American Tissue Culture Collection (Rockville, Md., USA). A 96-well plate was inoculated on day 0 with cells placed in 80 μl of Dulbecco's modified Eagle's medium (Gibco-Brl, Cergy-Pontoise, France) with 10% heat-inactivated foetal calf serum (Gibco-Brl, Cergy-Pontoise, France), 50000 units/1 of penicillin and 50 mg/l of streptomycin (Gibco-Brl, Cergy-Pontoise, France), and 2 mM of glutamine (Gibco-Brl, Cergy-Pontoise, France). The cells were treated on day 1 with increasing concentrations of each test compound up to 10 μM for 96 hours. At the end of this period, cell proliferation is quantified by means of a colorimetric test based on cleavage of the tetrazolium salt WST1 by the mitochondrial dehydrogenases in the viable cells, resulting in formation of formazan (Boehringer Mannheim, Meylan, France). These tests are performed in duplicate with 8 determinations per concentration tested. For each compound to be tested, the values within the linear part of the sigmoid curve were subjected to linear regression analysis and used to estimate the IC50 inhibitory concentration. The products are solubilised in dimethylsulfoxide (DMSO) at a concentration of 10^−2 M and used in culture with a final DMSO concentration of 0.1%.
For orientation: Formazan colour is commonly taken as a measure of viable cells.

For data set [3], the system named is DU145 (human prostate cancer cells). As to the kind of experiment: Anti-proliferative activity on DU-145 cell line (WST1 colorimetric test). Format: cell-based. The conditions noted are these: DU-145, 96 h, 96 hours treatment, read-out: IC50 on the proliferation of the DU-145 cell line.

Broadly, the melting point is the temperature, or range, at which the solid turns liquid.

`CN(CCNC(=S)Nc1ccc(Cl)cc1)CCNc1cc(N(C)C)nc(N(C)C)n1` [Example 73, N-{2-[(2-{[2,6-bis(dimethylamino)pyrimidin-4-yl]amino}ethyl)(methyl)amino]ethyl}-N′-(4-chlorophenyl)thiourea] came in with a melting point of 127 to 129 °C. Also, the IC50 in data set [1] was at most 5 µM. Moreover, the IC50 in data set [2] is at most 5 µM. In addition, the IC50 in data set [3] is at most 5 µM.

On to `CN(CCNc1cc(N2CCCC2)nc(N2CCCC2)n1)CCNS(=O)(=O)c1ccc(C(F)(F)F)cc1` [Example 89, N-{2-[{2-[(2,6-dipyrrolidin-1-ylpyrimidin-4-yl)amino]ethyl}(methyl)amino]ethyl}-4-(trifluoromethyl)benzenesulfonamide], for which the melting point was in the range of 140 to 142 °C. Further, the IC50 in data set [1] was at most 5 µM. In data set [2], the IC50 was at most 5 µM. Moreover, the IC50 in data set [3] was at most 5 µM.

As for `COc1cc(NC(=S)NCCN(C)CCNc2cc(N3CCCC3)nc(N3CCCC3)n2)cc(OC)c1OC` [Example 38, N-{2-[{2-[(2,6-dipyrrolidin-1-ylpyrimidin-4-yl)amino]ethyl}(methyl)amino]ethyl}-N′-(3,4,5-trimethoxyphenyl)thiourea], the melting point was 109 to 111 °C. The IC50 in data set [1] is at most 1 µM. The IC50 in data set [2] is at most 5 µM. The IC50 in data set [3] is at most 5 µM.

The molecule `CN(CCNC(=O)Nc1ccc(Cl)c(Cl)c1)CCNc1cc(N2CCCC2)nc(N2CCCC2)n1` [Example 17, N-(3,4-dichlorophenyl)-N′-{2-[{2-[(2,6-dipyrrolidin-1-ylpyrimidin-4-yl)amino]ethyl}(methyl)amino]ethyl}urea] gave a melting point of 138 to 139 °C. The IC50 in data set [1] is at most 1 µM. Also, in data set [2], the IC50 is at most 5 µM. Also, in data set [3], the IC50 was at most 5 µM.
